Results on 20 molecules are retold here after patent US10800741B2 (ANCUREALL PHARMACEUTICAL (SHANGHAI) CO., LTD., priority 2017, dated 2020).

The structures appear in SMILES notation. Bounds are passed on as bounds.

Format in all cases: cell-based, Human
Assay [1] concerns H1581 (FGFR1 amp). In words: In vitro growth inhibition of H1581 tumor cells (MTT/CCK8). The conditions noted are these: Homo sapiens, NCI-H1581; in vitro growth inhibition (or induction of apoptosis), cells cultured 3 to 5 days, MTT (CCK8); read-out: IC50 H1581 (FGFR1 amp). An excerpt:
(§1) Tumor cell lines are an effective model for studying in vitro tumor growth inhibition. In the present invention, a representative tumor cell line was selected to determine the cell growth inhibition activity of the present compound. All cell lines used were from ATCC, DSMZ, and cell banks of the Chinese Academy of Sciences. Cell culture conditions and methods were in accordance with the requirements of each cell line. Cells were subcultured in vitro for no more than 3 generations each time, and as required, single-clone purification and identification of cell lines could be carried out.
(§2) The cell culture media used were RPMI1640 (Gibco), DMEM (Gibco), MEM (Gibco), L15 (Gibco), IMDM (Gibco), McCOY'S5A, and William's (Gibco). 5-20% fetal bovine serum (Gibco), 1% double antibiotic, 2 mM glutamine, or 1 mM sodium pyruvate were added. The names, species, major gene characteristics, culture media and cell sources of the cell lines used are shown in table 1, wherein “amp” refers to gene amplification. “+++” refers to gene overexpression. The main genetic characteristics of cells were obtained from the COSMIC Cell Lines Project and related research papers, respectively.
(§3) Adherent cells were digested with 0.25% trypsin-EDTA (Gibco). Suspension culture cells were collected by centrifugation (1700 rpm, 3 minutes). The supernatant was discarded and the cells were counted. According to each cell growth cycle, different concentrations of cells were prepared (5˜10×10^4 cells per ml), and inoculated to 96-well plates (Corning), with 100 μl per well, and incubated overnight at 37° C., 5% CO2. The next day, the test compound was added to the cultured cells (2 wells in parallel). The final concentration of the solvent was less than 1/1,000. The cells were further cultured for 3 to 5 days and assayed by MTT.
(§4) The compound was stored at a concentration of 10 mM at −20° C. and diluted to 2- or 10-fold series prior to use. BGJ398 and AC220 were synthesized according to the methods of WO2006420A1 and US2007232604A1, respectively.
(§5) The adherent cells were taken out from the cell culture medium, and immediately added to a freshly prepared complete medium containing 10% CCK8 (5% FBS), 100 ul per hole. The suspended cells were directly added to a CCK8 reagent until reaching a final concentration of 10% and cultured for 1 to 4 hours.
(§6) T=optical density of drug-treated cell wells−optical density of blank control wells; T0=optical density of cell wells before drug treatment−optical density of blank control wells; C=optical density of solvent control wells−optical density of blank control wells. […] The experiments were repeated 1 to 3 times and a statistical analysis of data was conducted.

Assay [2] deals with KATO III (FGFR2 amp). Nature of the assay: In vitro growth inhibition of KATO III tumor cells (MTT/CCK8). The conditions noted are these: Homo sapiens, KATO III; in vitro growth inhibition (or induction of apoptosis), cells cultured 3 to 5 days, MTT (CCK8); read-out: IC50 KATO III (FGFR2 amp).
Text: as §1, §2, §3, §4, §5, §6

Assay [3] has as its system MOLM-13 (FLT3-ITD). Nature of the assay: In vitro growth inhibition of MOLM-13 tumor cells (MTT/CCK8). The conditions noted are these: Homo sapiens, MOLM-13; in vitro growth inhibition (or induction of apoptosis), cells cultured 3 to 5 days, MTT (CCK8); read-out: IC50 MOLM-13 (FLT3-ITD).
Text: as §1, §2, §3, §4, §5, §6

Consider `COCCOc1cc2nccc(Oc3ccc(NC(=O)Nc4cc(C(C)(C)C)n[nH]4)c(F)c3)c2cc1NC(C)=O` [Compound 128, N-[4-{4-[3-(5-tert-butyl-2H-pyrazol-3-yl)-ureido]-3-fluoro-phenoxy}-7-(2-methoxy-ethoxy)-quinolin-6-yl]-acetamide], for which the concentration for half-maximal inhibition (IC50) is 2.01 nM in assay [1], 0.1 nM in assay [2] and 3.91 nM in assay [3].

As to `COCCOc1cc2nccc(Oc3ccc(NC(=O)Nc4cc(C(C)(C)C)n[nH]4)c(C)c3)c2cc1NC(C)=O` [Compound 133, N-[4-{4-[3-(5-tert-butyl-2H-pyrazol-3-yl)-ureido]-3-methyl-phenoxy}-7-(2-methoxy-ethoxy)-quinolin-6-yl]-acetamide], the concentration for half-maximal inhibition (IC50) in assay [1] came out at 8.04 nM; in assay [2] it was 1.56 nM; in assay [3] it was 1.13 nM.

For the molecule `COCCOc1cc2nccc(Oc3ccc(NC(=O)Nc4cc(C(C)(C)C)nn4CCN(C)C)cc3)c2cc1NC(C)=O` [Compound 119, N-[4-(4-{3-[5-tert-butyl-2-(2-dimethylamino-ethyl)-2H-pyrazol-3-yl]-ureido}-phenoxy)-7-(2-methoxyethoxy)-quinolin-6-yl]-acetamide], the half-maximal inhibitory concentration (IC50) in assay [1] was 78.9 nM; in assay [2], 6.87 nM; in assay [3], below 0.05 nM.

Regarding `COCCOc1cc2nccc(Oc3ccc(NC(=O)Nc4cc(C(C)(C)C)nn4C4CC4)cc3F)c2cc1NC(C)=O` [Compound 134], the half-maximal inhibitory concentration (IC50) in assay [1] was 12.4 nM; in assay [2], 0.3 nM; in assay [3] it was below 0.05 nM.

Turning to `COCCOc1cc2nccc(Oc3ccc(NC(=O)Nc4cc(C(C)(C)C)nn4C4CCN(C)CC4)c(Cl)c3)c2cc1NC(C)=O` [Compound 126, N-[4-(4-{3-[5-tert-butyl-2-(1-methyl-piperidin-4-yl)-2H-pyrazol-3-yl]-ureido}-3-chloro-phenoxy)-7-(2-methoxy-ethoxy)-quinolin-6-yl]-acetamide], the IC50 in assay [1] is 1.41 nM; in assay [2], 0.41 nM; in assay [3] it was 7.62 nM.

As to `COCCOc1cc2nccc(Oc3ccc(NC(=O)Nc4cc(C(C)(C)C)n[nH]4)cc3)c2cc1NC(C)=O` [Compound 116, N-[4-{4-[3-(5-tert-butyl-2H-pyrazol-3-yl)-ureido]-phenoxy}-7-(2-methoxy-ethoxy)-quinolin-6-yl]-acetamide], the half-maximal inhibitory concentration (IC50) turned out to be 9.01 nM in assay [1], 1.97 nM in assay [2] and 0.095 nM in assay [3].

In the case of `COCCOc1cc2nccc(Oc3ccc(NC(=O)Nc4cc(C(C)(C)C)nn4CCN4CCOCC4)cc3Cl)c2cc1NC(C)=O` [Compound 137, N-[4-(4-{3-[5-tert-butyl-2-(2-morpholin-4-yl-ethyl)-2H-pyrazol-3-yl]-ureido}-2-chloro-phenoxy)-7-(2-methoxy-ethoxy)-quinolin-6-yl]-acetamide], the values for the IC50 in assay [1], in assay [2] and in assay [3] were 41.2 nM, 1.21 nM and 0.34 nM, respectively.

As for `CC(=O)Nc1cc2c(Oc3ccc(NC(=O)Nc4cc(C(C)(C)C)n[nH]4)c(Cl)c3)ccnc2cc1OCCCN1CCN(C)CC1` [Compound 130, N-{4-{4-[3-(5-tert-butyl-2H-pyrazol-3-yl)-ureido]-3-chloro-phenoxy}-7-[3-(4-methy-piperazin-1-yl)-propoxy]-quinolin-6-yl}-acetamide], the half-inhibitory concentration (IC50) in assay [1] was found to be 1.12 nM; in assay [2] it was 0.54 nM; in assay [3] it was 4.96 nM.

On to `COCCOc1cc2nccc(Oc3ccc(NC(=O)Nc4cc(C(C)(C)C)nn4C)c(Cl)c3)c2cc1NC(C)=O` [Compound 124, N-[4-{4-[3-(5-tert-butyl-2-methyl-2H-pyrazol-3-yl)-ureido]-3-chloro-phenoxy}-7-(2-methoxy-ethoxy)-quinolin-6-yl]-acetamide], for which the figures for the 50% inhibitory concentration (IC50) in assay [1], in assay [2] and in assay [3] were 4.6 nM, 0.31 nM and 1.01 nM, respectively.

On to `CC(=O)Nc1cc2c(Oc3ccc(NC(=O)Nc4cc(C(C)(C)C)n[nH]4)c(Cl)c3)ccnc2cc1OCCO` [Compound 131], for which the IC50 is 19.5 nM in assay [1], 11.6 nM in assay [2] and 14.7 nM in assay [3].

For the molecule `COCCOc1cc2nccc(Oc3ccc(NC(=O)Nc4cc(C(C)(C)C)nn4C4CCNCC4)cc3)c2cc1NC(C)=O` [Compound 120, N-[4-{4-[3-(5-tert-butyl-2-piperidin-4-yl-2H-pyrazol-3-yl)-ureido]-phenoxy}-7-(2-methoxy-ethoxy)-quinolin-6-yl]-acetamide], the concentration for half-maximal inhibition (IC50) in assay [1] was found to be 78.6 nM; in assay [2], 13.5 nM; in assay [3], 0.55 nM.

For `CC(C)(C)c1cc(NC(=O)Nc2ccc(Oc3ccnc4cc(OCCCN5CCOCC5)c(C(N)=O)cc34)cc2Cl)[nH]n1` [Compound 138, 4-{4-[3-(5-tert-butyl-2H-pyrazol-3-yl)-ureido]-3-chloro-phenoxy}-7-(3-morpholin-4-yl-propoxy)-quinolin-6-carboxamide], the values for the 50% inhibitory concentration (IC50) in assay [1], in assay [2] and in assay [3] were 97.3 nM, 18.2 nM and 21.3 nM, respectively.

With `COCCOc1cc2nccc(Oc3ccc(NC(=O)Nc4cc(C(C)(C)C)nn4CCN4CCOCC4)cc3F)c2cc1NC(C)=O` [Compound 136, N-[4-(4-{3-[5-tert-butyl-2-(2-morpholin-4-yl-ethyl)-2H-pyrazol-3-yl]-ureido}-2-fluoro-phenoxy)-7-(2-methoxy-ethoxy)-quinolin-6-yl]-acetamide], the IC50 in assay [1] worked out at 39 nM; in assay [2], 0.4 nM; in assay [3] it was 0.05 nM.

As to `CC(C)(C)c1cc(NC(=O)Nc2ccc(Oc3ccnc4cc(OCCCN5CCOCC5)c(C(N)=O)cc34)cc2Cl)n(C2CCCC2)n1` [Compound 140, 4-{4-[3-(5-tert-butyl-2-cyclopentyl-2H-pyrazol-3-yl)-ureido]-3-chloro-phenoxy}-7-(3-morpholin-4-yl-propoxy)-quinolin-6-carboxamide], the 50% inhibitory concentration (IC50) in assay [1] amounted to 115 nM; in assay [2], 23.7 nM; in assay [3] it was 17.9 nM.

Turning to `CN1CCN(CCCOc2cc3nccc(Oc4ccc(NC(=O)Nc5cc(C(C)(C)C)nn5C5CCCC5)c(Cl)c4)c3cc2C(N)=O)CC1` [Compound 139], the IC50 was determined as 3.44 nM in assay [1], 1.14 nM in assay [2] and 9.87 nM in assay [3].

`COCCCOc1cc2nccc(Oc3ccc(NC(=O)Nc4cc(C(C)(C)C)n[nH]4)c(Cl)c3)c2cc1NC(C)=O` [Compound 129, N-[4-{4-[3-(5-tert-butyl-2H-pyrazol-3-yl)-ureido]-3-chloro-phenoxy}-7-(3-methoxy-propoxy)-quinolin-6-yl]-acetamide]: the IC50 is 4.78 nM in assay [1], 0.34 nM in assay [2] and 4.88 nM in assay [3].

In the case of `COCCOc1cc2nccc(Oc3ccc(NC(=O)Nc4cc(C(C)(C)C)nn4C4CCN(C)CC4)cc3)c2cc1NC(C)=O` [Compound 121], the half-maximal inhibitory concentration (IC50) came to 19.5 nM in assay [1], 0.5 nM in assay [2] and 0.61 nM in assay [3].

Turning to `COCCOc1cc2nccc(Oc3ccc(NC(=O)Nc4cc(C(C)(C)C)nn4C)cc3Cl)c2cc1NC(C)=O` [Compound 135, N-[4-{4-[3-(5-tert-butyl-2-methyl-2H-pyrazol-3-yl)-ureido]-2-chloro-phenoxy}-7-(2-methoxy-ethoxy)-quinolin-6-yl]-acetamide], the IC50 in assay [1] is 19.5 nM; in assay [2], 0.22 nM; in assay [3] it was 0.11 nM.

As to `COCCOc1cc2nccc(Oc3ccc(NC(=O)Nc4cc(C(C)(C)C)nn4C)cc3)c2cc1NC(C)=O` [Compound 117, N-[4-{4-[3-(5-tert-butyl-2-methyl-2H-pyrazol-3-yl)-ureido]-phenoxy}-7-(2-methoxy-ethoxy)-quinolin-6-yl]-acetamide], the IC50 in assay [1] amounted to 9.72 nM; in assay [2], 0.17 nM; in assay [3], 0.25 nM.

On to `CC(=O)Nc1cc2c(Oc3ccc(NC(=O)Nc4cc(C(C)(C)C)n[nH]4)c(Cl)c3)ccnc2cc1OCCN1CCOCC1` [Compound 132, N-[4-{4-[3-(5-tert-butyl-2H-pyrazol-3-yl)-ureido]-3-chloro-phenoxy}-7-(2-morpholin-4-yl-ethoxy)-quinolin-6-yl]-acetamide], for which the IC50 turned out to be 3.91 nM in assay [1], 1.34 nM in assay [2] and 0.98 nM in assay [3].
